# According to the supplement of paper PMC10627819:
# Key:
# B. subtilis 168 [1] = assay: fitness (endpoint OD595 vs no drug) (fraction); higher = more growth
# Outline: (§1)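 Cultures at OD595 0.01 were dispensed into 384-well plates in TSB, LB Lennox or CY and incubated at 37 °C. Every 30 min for 14 h, OD595 was read and corrected by the first reading. Fitness is the optical density at entry into stationary phase relative to the robust mean of no-drug control wells, capped at 1.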
# S. aureus DSM 20231 [2] = assay: as above
# Outline: as §1
# S. aureus Newman [3] = assay: as above
# Outline: as §1
# S. pneumoniae D39V [4] = assay: as above
# Outline: as §1
# B. subtilis 168 [5] = assay: Bliss interaction score (quartile over a dose matrix) (fitness difference); higher = more antagonism (negative = synergy)
# Outline: (§2)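 Values were capped at 1 after dividing OD595 at stationary-phase entry by the plate's robust no-drug mean. This ratio is fitness, and single-drug fitness was inferred from the combination data. The Bliss score is observed minus product-expected fitness, given as quartiles over technical, biological and donor/recipient replicates.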
# S. aureus DSM 20231 [6] = assay: as above
# Outline: as §2
# S. aureus Newman [7] = assay: as above
# Outline: as §2
# S. pneumoniae D39V [8] = assay: as above
# Outline: as §2
# [9] = first compound 0.0625 µg/mL, partner 0.0625 µg/mL
# [10] = first compound 0.0625 µg/mL, partner 0.125 µg/mL
# [11] = first compound 0.0625 µg/mL, partner 0.25 µg/mL
# [12] = first compound 0.125 µg/mL, partner 0.0625 µg/mL
# [13] = first compound 0.125 µg/mL, partner 0.125 µg/mL
# [14] = first compound 0.125 µg/mL, partner 0.25 µg/mL
# [15] = first compound 0.0312 µg/mL, partner 0.5 µg/mL, one replicate
# [16] = first compound 0.0312 µg/mL, partner 1 µg/mL, one replicate
# [17] = first compound 0.0625 µg/mL, partner 0.5 µg/mL, one replicate
# [18] = first compound 0.0625 µg/mL, partner 1 µg/mL, one replicate
# [19] = first compound 0.125 µg/mL, partner 0.5 µg/mL, one replicate
# [20] = first compound 0.125 µg/mL, partner 1 µg/mL, one replicate
# 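For Bliss interaction score (quartile over a dose matrix) in this document: first quartile when negative (synergy) and third quartile when positive (antagonism).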
smiles,measurement,setting,value
CCC[C@@H]1C[C@@H](C(=O)N[C@@H]([C@H]2O[C@H](SC)[C@H](O)[C@@H](O)[C@H]2O)[C@H](C)Cl)N(C)C1 [Clindamycin] + CC1=C\[C@@H](O)CC(=O)Cc2nc(co2)C(=O)N2CCC=C2C(=O)O[C@H](C(C)C)[C@H](C)/C=C/C(=O)NC\C=C\1 [Virginiamycin M1],fitness,"B. subtilis 168 [1]; first compound 0.0039 µg/mL, partner 0.0625 µg/mL, one replicate",0.963
same,fitness,"B. subtilis 168 [1]; first compound 0.0039 µg/mL, partner 0.125 µg/mL, one replicate",0.94
same,fitness,"B. subtilis 168 [1]; first compound 0.0039 µg/mL, partner 0.25 µg/mL, one replicate",0.971
same,fitness,"B. subtilis 168 [1]; first compound 0.0078 µg/mL, partner 0.0625 µg/mL, one replicate",0.459
same,fitness,"B. subtilis 168 [1]; first compound 0.0078 µg/mL, partner 0.125 µg/mL, one replicate",0.881
same,fitness,"B. subtilis 168 [1]; first compound 0.0078 µg/mL, partner 0.25 µg/mL, one replicate",0.862
same,fitness,"B. subtilis 168 [1]; first compound 0.0156 µg/mL, partner 0.0625 µg/mL, one replicate",0.845
same,fitness,"B. subtilis 168 [1]; first compound 0.0156 µg/mL, partner 0.125 µg/mL, one replicate",0.923
same,fitness,"B. subtilis 168 [1]; first compound 0.0156 µg/mL, partner 0.25 µg/mL, one replicate",0.927
same,fitness,B. subtilis 168 [1]; [9],0.595
same,fitness,B. subtilis 168 [1]; [10],0.564
same,fitness,B. subtilis 168 [1]; [11],0.59
same,fitness,B. subtilis 168 [1]; [12],0.397
same,fitness,B. subtilis 168 [1]; [13],0.364
same,fitness,B. subtilis 168 [1]; [14],0.38
same,fitness,"B. subtilis 168 [1]; first compound 0.25 µg/mL, partner 0.0625 µg/mL",0.361
same,fitness,"B. subtilis 168 [1]; first compound 0.25 µg/mL, partner 0.125 µg/mL",0.357
same,fitness,"B. subtilis 168 [1]; first compound 0.25 µg/mL, partner 0.25 µg/mL",0.366
same,fitness,S. aureus DSM 20231 [2]; [15],0.661
same,fitness,S. aureus DSM 20231 [2]; [16],0.597
same,fitness,S. aureus DSM 20231 [2]; [9],0.0867
same,fitness,S. aureus DSM 20231 [2]; [10],0.0913
same,fitness,S. aureus DSM 20231 [2]; [11],0.131
same,fitness,S. aureus DSM 20231 [2]; [17],0.316
same,fitness,S. aureus DSM 20231 [2]; [18],0.275
same,fitness,S. aureus DSM 20231 [2]; [12],0.0395
same,fitness,S. aureus DSM 20231 [2]; [13],0.0407
same,fitness,S. aureus DSM 20231 [2]; [14],0.0815
same,fitness,S. aureus DSM 20231 [2]; [19],0.067
same,fitness,S. aureus DSM 20231 [2]; [20],0.121
same,fitness,"S. aureus Newman [3]; first compound 0.0312 µg/mL, partner 0.0625 µg/mL",0.601
same,fitness,"S. aureus Newman [3]; first compound 0.0312 µg/mL, partner 0.125 µg/mL",0.613
same,fitness,"S. aureus Newman [3]; first compound 0.0312 µg/mL, partner 0.25 µg/mL",0.622
same,fitness,S. aureus Newman [3]; [15],0.865
same,fitness,S. aureus Newman [3]; [16],0.892
same,fitness,"S. aureus Newman [3]; first compound 0.0312 µg/mL, partner 2 µg/mL, one replicate",0.769
same,fitness,S. aureus Newman [3]; [9],0.303
same,fitness,S. aureus Newman [3]; [10],0.321
same,fitness,S. aureus Newman [3]; [11],0.296
same,fitness,S. aureus Newman [3]; [17],0.702
same,fitness,S. aureus Newman [3]; [18],0.728
same,fitness,"S. aureus Newman [3]; first compound 0.0625 µg/mL, partner 2 µg/mL, one replicate",0.595
same,fitness,S. aureus Newman [3]; [12],0.0641
same,fitness,S. aureus Newman [3]; [13],0.0861
same,fitness,S. aureus Newman [3]; [14],0.0756
same,fitness,S. aureus Newman [3]; [19],0.491
same,fitness,S. aureus Newman [3]; [20],0.475
same,fitness,"S. aureus Newman [3]; first compound 0.125 µg/mL, partner 2 µg/mL, one replicate",0.276
same,fitness,"S. pneumoniae D39V [4]; first compound 0.0125 µg/mL, partner 0.5 µg/mL",0.735
same,fitness,"S. pneumoniae D39V [4]; first compound 0.0125 µg/mL, partner 1 µg/mL",0.726
same,fitness,"S. pneumoniae D39V [4]; first compound 0.0125 µg/mL, partner 2 µg/mL",0.669
same,fitness,"S. pneumoniae D39V [4]; first compound 0.015 µg/mL, partner 0.15 µg/mL, one replicate",0.978
same,fitness,"S. pneumoniae D39V [4]; first compound 0.015 µg/mL, partner 0.3 µg/mL, one replicate",0.911
same,fitness,"S. pneumoniae D39V [4]; first compound 0.015 µg/mL, partner 0.5 µg/mL, one replicate",0.877
same,fitness,"S. pneumoniae D39V [4]; first compound 0.015 µg/mL, partner 1 µg/mL, one replicate",0.838
same,fitness,"S. pneumoniae D39V [4]; first compound 0.015 µg/mL, partner 2 µg/mL",0.806
same,fitness,"S. pneumoniae D39V [4]; first compound 0.025 µg/mL, partner 0.5 µg/mL",0.496
same,fitness,"S. pneumoniae D39V [4]; first compound 0.025 µg/mL, partner 1 µg/mL",0.471
same,fitness,"S. pneumoniae D39V [4]; first compound 0.025 µg/mL, partner 2 µg/mL",0.428
same,fitness,"S. pneumoniae D39V [4]; first compound 0.03 µg/mL, partner 0.15 µg/mL, one replicate",0.838
same,fitness,"S. pneumoniae D39V [4]; first compound 0.03 µg/mL, partner 0.3 µg/mL, one replicate",0.82
same,fitness,"S. pneumoniae D39V [4]; first compound 0.03 µg/mL, partner 0.5 µg/mL, one replicate",0.79
same,fitness,"S. pneumoniae D39V [4]; first compound 0.03 µg/mL, partner 1 µg/mL, one replicate",0.652
same,fitness,"S. pneumoniae D39V [4]; first compound 0.03 µg/mL, partner 2 µg/mL",0.699
same,fitness,"S. pneumoniae D39V [4]; first compound 0.05 µg/mL, partner 0.5 µg/mL",0.243
same,fitness,"S. pneumoniae D39V [4]; first compound 0.05 µg/mL, partner 1 µg/mL",0.217
same,fitness,"S. pneumoniae D39V [4]; first compound 0.05 µg/mL, partner 2 µg/mL",0.15
same,fitness,"S. pneumoniae D39V [4]; first compound 0.06 µg/mL, partner 0.15 µg/mL, one replicate",0.736
same,fitness,"S. pneumoniae D39V [4]; first compound 0.06 µg/mL, partner 0.3 µg/mL, one replicate",0.695
same,fitness,"S. pneumoniae D39V [4]; first compound 0.06 µg/mL, partner 0.5 µg/mL, one replicate",0.703
same,fitness,"S. pneumoniae D39V [4]; first compound 0.06 µg/mL, partner 1 µg/mL, one replicate",0.574
same,fitness,"S. pneumoniae D39V [4]; first compound 0.06 µg/mL, partner 2 µg/mL",0.624
same,Bliss interaction score,B. subtilis 168 [5],-0.0417
same,Bliss interaction score,S. aureus DSM 20231 [6],-0.0802
same,Bliss interaction score,S. aureus Newman [7],-0.0298
same,Bliss interaction score,S. pneumoniae D39V [8],-0.0639
